From patent US8680012B2, “4-phenyl-pyrane-3,5-diones,4-phenyl-thiopyrane-3,6-diones and cyclohexanetriones as novel herbicides” (Syngenta Crop Protection LLC, priority 2006, dated 2014) come the findings set out here.

What all share (type): in vivo
The test system of assay [1] is Avena fatua (AVEFA). Description: Example B pre-emergence herbicidal activity, glasshouse pot test. The settings on record: 312 h, rate 250 g/ha, evaluated after 13 days, read-out: Pre-emergence activity AVEFA (100=total damage to plant; 0=no damage to plant). As to the method: (§1) Seeds of a variety of test species were sown in standard soil in pots. After cultivation for one day (pre-emergence) or after 8 days cultivation (post-emergence) under controlled conditions in a glasshouse (at 24/16° C., day/night; 14 hours light; 65% humidity), the plants were sprayed with an aqueous spray solution derived from the formulation of the technical active ingredient in acetone/water (50:50) solution containing 0.5% Tween 20 (polyoxyethelyene sorbitan monolaurate, CAS RN 9005-64-5). The test plants were then grown in a glasshouse under controlled conditions in a glasshouse (at 24/16° C., day/night; 14 hours light; 65% humidity) and watered twice daily. After 13 days for pre and post-emergence, the test was evaluated (100=total damage to plant; 0=no damage to plant).
(§2) Alopecurus myosuroides (ALOMY), Avena fatua (AVEFA), Setaria faberi (SETFA), Echinochloa crus-galli (ECHCG), Solanum nigrum (SOLNI) and Amaranthus retroflexus (AMARE)

Assay [2] concerns Setaria faberi (SETFA). The assay is described as above. The settings on record: 312 h, rate 250 g/ha, evaluated after 13 days, read-out: Pre-emergence activity SETFA (100=total damage to plant; 0=no damage to plant). Here is the method:
as §1, §2

Assay [3] concerns Echinochloa crus-galli (ECHCG). Described as above. As to conditions: 312 h, rate 250 g/ha, evaluated after 13 days, read-out: Pre-emergence activity ECHCG (100=total damage to plant; 0=no damage to plant). Here is the method: as §1, §2
The test system of assay [4] is Amaranthus retroflexus (AMARE). The assay is described as above. As to conditions: 312 h, rate 250 g/ha, evaluated after 13 days, read-out: Pre-emergence activity AMARE (100=total damage to plant; 0=no damage to plant). As to the method: as §1, §2
In assay [5] the test system is Alopecurus myosuroides (ALOMY). The assay is described as above. The settings on record: 312 h, rate 250 g/ha, evaluated after 13 days, read-out: Pre-emergence activity ALOMY (100=total damage to plant; 0=no damage to plant). Here is the method: as §1, §2
Assay [6] deals with Avena fatua (AVEFA). The experiment in a line: Example B post-emergence herbicidal activity, glasshouse pot test. As to conditions: 312 h, rate 250 g/ha, evaluated after 13 days, read-out: Post-emergence activity AVEFA (100=total damage to plant; 0=no damage to plant). Here is the method: as §1, §2
Assay [7] deals with Setaria faberi (SETFA). The description is as above. The settings on record: 312 h, rate 250 g/ha, evaluated after 13 days, read-out: Post-emergence activity SETFA (100=total damage to plant; 0=no damage to plant). Here is the method: as §1, §2
Assay [8] deals with Echinochloa crus-galli (ECHCG). Described as above. As to conditions: 312 h, rate 250 g/ha, evaluated after 13 days, read-out: Post-emergence activity ECHCG (100=total damage to plant; 0=no damage to plant). Here is the method: as §1, §2
Assay [9] relates to Amaranthus retroflexus (AMARE). The description is as above. As to conditions: 312 h, rate 250 g/ha, evaluated after 13 days, read-out: Post-emergence activity AMARE (100=total damage to plant; 0=no damage to plant). Here is the method: as §1, §2
The subject of assay [10] is Alopecurus myosuroides (ALOMY). Described as above. As to conditions: 312 h, rate 250 g/ha, evaluated after 13 days, read-out: Post-emergence activity ALOMY (100=total damage to plant; 0=no damage to plant). Here is the method:
as §1, §2

Turning to `CCc1ccc(-c2ccc(Cl)c(F)c2)cc1C1=C(O)C(C)(C)SC(C)(C)C1=O` (single isomer, unassigned) [Compound C-5], the pest or weed control at 250 g/ha in the assay with Avena fatua (AVEFA) [1] came out at 0%; with Setaria faberi (SETFA) [2], 0%; in [3], 0%; in assay [4] it was 0%; in assay [5] it was 0%; in the assay with Avena fatua (AVEFA) [6], 70%. In addition, the pest or weed control at 250 g/ha with Setaria faberi (SETFA) [7] worked out at 90%; in assay [8], 100%; in [9], 0%; in [10] it was 70%.
For `CCc1ccc(-n2cnc(Cl)c2Cl)cc1C1=C(OC(=O)OC)C(C)(C)OC(C)(C)C1=O` [Compound D-32], the pest or weed control at 250 g/ha with Avena fatua (AVEFA) [1] came out at 80%; with Setaria faberi (SETFA) [2], 80%; in assay [3], 60%; in assay [4] it was 0%; in assay [5], 20%; in the assay with Avena fatua (AVEFA) [6], 70%. Further, the pest or weed control at 250 g/ha was determined as 80% with Setaria faberi (SETFA) [7], 90% in [8], 0% in assay [9] and 50% in [10].
`CCc1ccc(-c2ccc(Cl)cc2Cl)cc1C1=C(O)C(C)(C)S(=O)(=O)C(C)(C)C1=O` [Compound C-11]: the pest or weed control at 250 g/ha in the assay with Avena fatua (AVEFA) [1] is 80%; in the assay with Setaria faberi (SETFA) [2], 0%; in assay [3], 0%; in assay [4], 0%; in assay [5] it was 0%; in the assay on Avena fatua (AVEFA) [6], 60%. In addition, the pest or weed control at 250 g/ha amounted to 30% in the assay on Setaria faberi (SETFA) [7], 80% in [8], 20% in assay [9] and 70% in assay [10].
Regarding `CCc1ccc(-c2ccc(Cl)c(F)c2)cc1C1=C(O)C(C)(C)[S+]([O-])C(C)(C)C1=O` (stereo not drawn) [Compound C-12], the pest or weed control at 250 g/ha with Avena fatua (AVEFA) [1] was 90%; in the assay with Setaria faberi (SETFA) [2] it was 90%; in assay [3], 20%; in assay [4], 0%; in assay [5], 0%; in the assay on Avena fatua (AVEFA) [6] it was 90%. For the same compound, the pest or weed control at 250 g/ha worked out at 90% in the assay on Setaria faberi (SETFA) [7], 90% in assay [8], 0% in assay [9] and 80% in [10].
Consider `CCc1ccc(-c2ccc(Cl)c(Cl)c2)cc1C1=C(O)[C@H]2CC[C@H](O2)C1=O` [Compound A-132], for which the pest or weed control at 250 g/ha with Avena fatua (AVEFA) [1] turned out to be 0%; in the assay with Setaria faberi (SETFA) [2], 0%; in [3], 0%; in assay [4] it was 0%; in [5] it was 0%; in the assay on Avena fatua (AVEFA) [6], 30%. Further, the pest or weed control at 250 g/ha in the assay with Setaria faberi (SETFA) [7] is 90%; in assay [8] it was 70%; in assay [9] it was 0%; in [10], 20%.
Turning to `CCc1ccc(-c2cc(F)c(Cl)c(F)c2)cc1C1=C(O)C(C)(C)OC(C)(C)C1=O` [Compound A-152], the pest or weed control at 250 g/ha in the assay with Avena fatua (AVEFA) [1] was 90%; in the assay with Setaria faberi (SETFA) [2], 100%; in assay [3] it was 100%; in assay [4] it was 0%; in assay [5], 70%; in the assay on Avena fatua (AVEFA) [6] it was 100%. In addition, the pest or weed control at 250 g/ha in the assay on Setaria faberi (SETFA) [7] came to 100%; in assay [8] it was 100%; in assay [9] it was 0%; in assay [10], 100%.
In the case of `CCc1ccc(-c2ccc(Cl)cc2Cl)cc1C1=C(O)C(C)(C)SC(C)(C)C1=O` (single isomer, unassigned) [Compound C-4], the pest or weed control at 250 g/ha in the assay with Avena fatua (AVEFA) [1] came out at 0%; with Setaria faberi (SETFA) [2], 0%; in [3], 0%; in [4] it was 0%; in assay [5], 0%; in the assay on Avena fatua (AVEFA) [6], 30%. For the same compound, the pest or weed control at 250 g/ha in the assay with Setaria faberi (SETFA) [7] worked out at 70%; in [8] it was 70%; in assay [9] it was 20%; in [10] it was 60%.
On to `COc1ccc(-c2ccc(Cl)cc2F)cc1C1=C(O)C(C)(C)OC(C)(C)C1=O` [Compound A-103], for which the pest or weed control at 250 g/ha (in the assay with Avena fatua (AVEFA) [1]; with Setaria faberi (SETFA) [2]; in assay [3]; in assay [4]; in assay [5]; in the assay with Avena fatua (AVEFA) [6]) was 0% each time. Also, the pest or weed control at 250 g/ha in the assay with Setaria faberi (SETFA) [7] came to 100%; in assay [8], 100%; in [9] it was 0%; in [10] it was 10%.
Regarding `Cc1ccc(-c2ccc(Cl)c(F)c2)cc1C1=C(O)C(C)(C)SC(C)(C)C1=O` (single isomer, unassigned) [Compound C-9], the pest or weed control at 250 g/ha in the assay on Avena fatua (AVEFA) [1] stood at 0%; in the assay on Setaria faberi (SETFA) [2] it was 0%; in assay [3] it was 0%; in assay [4], 0%; in assay [5], 0%; in the assay on Avena fatua (AVEFA) [6], 40%. Besides, the pest or weed control at 250 g/ha was 10% in the assay with Setaria faberi (SETFA) [7], 70% in [8], 0% in assay [9] and 50% in [10].
In the case of `CCc1ccc(-c2ccc(Cl)cn2)cc1C1=C(O)C(C)(C)OC(C)(C)C1=O` [Compound A-150], the pest or weed control at 250 g/ha is 40% in the assay on Avena fatua (AVEFA) [1]; 100% in the assay with Setaria faberi (SETFA) [2]; 100% in assay [3]; 0% in assay [4]; 90% in [5]; 80% with Avena fatua (AVEFA) [6]. The pest or weed control at 250 g/ha was found to be 100% in the assay with Setaria faberi (SETFA) [7], 100% in assay [8], 0% in assay [9] and 90% in assay [10].
In the case of `CCc1ccc(-c2ccc(Cl)c(C#N)c2)cc1C1=C(O)C(C)(C)OC(C)(C)C1=O` [Compound A-69], the pest or weed control at 250 g/ha with Avena fatua (AVEFA) [1] was determined as 0%; in the assay on Setaria faberi (SETFA) [2], 80%; in [3], 60%; in assay [4], 0%; in [5], 0%; with Avena fatua (AVEFA) [6] it was 90%. Further, the pest or weed control at 250 g/ha in the assay with Setaria faberi (SETFA) [7] was 100%; in assay [8] it was 100%; in assay [9] it was 90%; in [10], 70%.
As to `COc1ccc(-c2ccc(Cl)cc2)cc1C1=C(O)C(C)(C)OC(C)(C)C1=O` [Compound A-90], the pest or weed control at 250 g/ha amounted to 0% in the assay on Avena fatua (AVEFA) [1]; 0% in the assay with Setaria faberi (SETFA) [2]; 0% in assay [3]; 0% in assay [4]; 0% in [5]; 20% in the assay on Avena fatua (AVEFA) [6]. Also, the pest or weed control at 250 g/ha was 90% in the assay on Setaria faberi (SETFA) [7], 90% in assay [8], 0% in assay [9] and 40% in assay [10].
